# Test results published in paper PMC2896951, “The proline-rich peptide Bac7(1-35) reduces mortality from Salmonella typhimurium in a mouse model of infection” (BMC Microbiology, 2010).
# Where a SMILES comes first, the peptide text is derived from it. Where no end group is shown, it is not given here.
# Columns and labels:
# [1] = tested on: S. enterica ATCC 14028 in liver and spleen of CBA/Ca mice; assay: Viable colony counts in murine liver and spleen homogenates; format: in vivo, mouse; details: 30 mg/kg i.p., 3 days post-inoculation
# Method: Three days after bacterial infection, a group of 3 untreated and 3 peptide-treated mice were killed by cervical dislocation, and liver and spleen were removed. The organs were weighed, homogenized separately and dissolved in PBS. Suitable dilutions of 50 μL of the homogenate in PBS were plated in duplicate on Mueller-Hinton agar (Difco). The plates were then incubated at 37°C overnight to allow colony counts. Results are expressed as number of CFU/g of organ. This assay was repeated two fold.
# in vitro = assay: in vitro
# Method: Bac7(1-35) peptide (50 μg) was incubated in 250 μL of PBS containing 25% (v/v) of murine serum or plasma at 37°C. At different time intervals (0, 1, 2, 4, 8 and 24 h), aliquots of 25 μL (corresponding to 5 μg of peptide) were added to 65 μL of cold 0.5% (v/v) TFA in H2O, kept on ice for 5 min and than centrifuged at 10.000 × g for 5 min. The LC-MS analysis of supernatants were carried out as described, using a standard curve to calculate the peptide concentration.
# [2] = 37°C, several days of incubation
# Method: (§1) At different times, aliquots of samples were diluted 1:5 in sample buffer (12% SDS, 6% dithiothreitol, 40% glycerol, 0.05% bromophenol blue, 150 mM Tris-HCl, pH 7), incubated for 15 min at 60°C and analyzed on a 16% Tricine/SDS gel. Proteins were then blotted onto nitrocellulose membrane (Whatman), and incubated overnight with shaking at 4°C in 40 mM Tris-HCl, pH 7.5, 5% non-fat milk, 0.05% Tween 20, 200 mM NaCl (blocking solution). Samples were incubated for 90 min with 1:1000 rabbit anti-Bac7(1-35) IgG, diluted in blocking solution, followed by a HRP-conjugated anti-rabbit IgG (Sigma-Aldrich). The ECL detection system (GE Healthcare) was used to develop the Western blots.
# [3] = 37°C, Western blot
# Method: as §1
# [4] = tested on: Salmonella enterica serovar Typhimurium ATCC 14028; assay: Killing kinetics assay (bactericidal activity) in the presence of biological fluids; format: cell-based; details: for reduction of the number of CFU: 10 μM peptide, 1 h incubation, 37°C
# Method: Murine plasma obtained using 2% (v/v) Na-citrate as an anticoagulant, and serum were prepared and stored at -20°C until use. The bactericidal activity of Bac7(1-35) against Salmonella enterica serovar Typhimurium ATCC 14028 was determined by a killing kinetics assay. Mid-logarithmic phase S. enterica cultures were diluted in murine serum or plasma (66% v/v final concentration) or BSA (40 mg/mL) (Sigma) to give approximately 1 × 10^6 cells/ml, and incubated with 10 μM Bac7(1-35) in a shaking water bath at 37°C for different times. Samples were withdrawn, diluted and plated to allow colony counts.
# Balb/c and CBA/Ca mice = assay: In vivo toxicity after single i.p. injection; set-up: species or system mouse
# Method: The in vivo toxicity of Bac7(1-35) was investigated by injecting mice via i.p. with increasing amounts of the peptide dissolved in apyrogen PBS (0.2 ml per mouse). The controls received the vehicle alone. Animal behavior and survival were monitored over a 14-day period.
# [5] = tested on: S. typhimurium ATCC 14028 infection in CBA/Ca mice; assay: Mouse model of typhoid fever, survival; format: in vivo
# Method: Inocula containing 10^2 CFU/mouse of S. enterica ATCC 14028, expected to result in 90-100% mortality in 4-6 days for Balb/c and 10-18 days for CBA/Ca, were prepared by diluting log-phase bacterial cultures in sterile PBS. Ten mice were infected intraperitoneally and monitored for survival over a 60-day period after infection. Test peptide (30 mg/kg) was injected via i.p. after bacterial challenge. The choice of dose was based on preliminary data obtained with lower doses (data not shown) and on results reported in the literature for structurally similar peptides. Control mice were given 0.2 ml of PBS. […] The analysis of survival curves was conducted using the Kaplan-Meyer method and successive statistical evaluation by the Logrank test. Significance of percentage differences among groups was assessed by using the Fisher exact test. Values of p < 0.05 were considered statistically significant.
# [6] = tested on: E. coli infection; S. typhimurium disease; set-up: method as in 2 sources, one per row (each row's own in cited_ref): ref 8 = [8]; PMID 12222961; doi:10.1007/s00018-002-8493-8; Otvos L The short proline-rich antibacterial peptide family Cell Mol Life Sci 2002 59 7 1138 1150 10.1007/s00018-002-8493-8 12222961 PMC11337521 ||| ref 22 = [22]; PMID 2934362; doi:10.1093/jac/16.5.615; Easmon CS Blowers A Ciprofloxacin treatment of systemic salmonella infection in sensitive and resistance mice J Antimicrob Chemother 1985 16 5 615 619 10.1093/jac/16.5.615 2934362; details: Balb/c mice; cited from earlier work
# Method: As a first step to evaluate the therapeutic potential of Bac7(1-35), its in vivo toxicity was determined in Balb/c and CBA/Ca mice after injection via i.p. of increasing single peptide doses. […] For ... || The potential of Bac7(1-35) to protect mice from a bacterial challenge was tested by a mouse model of Salmonella infection. Infected mice develop a systemic disease characterized by rapid bacterial multiplication in the liver and spleen that resembles typhoid fever caused by Salmonella serovar Typhi in humans.
# [7] = Antimicrobial activity of the labelled peptide (data not shown); format: cell-based
# healthy animals / mice = details: i.v.; cited from earlier work
compound,measurement,setting,value
CC[C@H](C)[C@H](NC(=O)[C@H](CCCNC(=N)N)NC(=O)[C@@H](N)CCCNC(=N)N)C(=O)N[C@@H](CCCNC(=N)N)C(=O)N1CCC[C@H]1C(=O)N[C@@H](CCCNC(=N)N)C(=O)N1CCC[C@H]1C(=O)N1CCC[C@H]1C(=O)N[C@@H](CCCNC(=N)N)C(=O)N[C@@H](CC(C)C)C(=O)N1CCC[C@H]1C(=O)N[C@@H](CCCNC(=N)N)C(=O)N1CCC[C@H]1C(=O)N[C@@H](CCCNC(=N)N)C(=O)N1CCC[C@H]1C(=O)N[C@@H](CCCNC(=N)N)C(=O)N1CCC[C@H]1C(=O)N[C@@H](CC(C)C)C(=O)N1CCC[C@H]1C(=O)N[C@@H](Cc1ccccc1)C(=O)N1CCC[C@H]1C(=O)N[C@@H](CCCNC(=N)N)C(=O)N1CCC[C@H]1C(=O)NCC(=O)N1CCC[C@H]1C(=O)N[C@@H](CCCNC(=N)N)C(=O)N1CCC[C@H]1C(=O)N[C@H](C(=O)N1CCC[C@H]1C(=O)N[C@@H](CCCNC(=N)N)C(=O)N1CCC[C@H]1C(=O)N[C@@H](CC(C)C)C(=O)N1CCC[C@H]1C(=O)N[C@@H](Cc1ccccc1)C(=O)N1CCC[C@H]1C(=O)O)[C@@H](C)CC [Bac7(1-35)] (H-RRIRPRPPRLPRPRPRPLPFPRPGPRPIPRPLPFP-OH; N-terminus and C-terminus assumed),fraction of animals with bacteria undetectable in both spleen and liver,[1],1/3
same,number of viable bacterial cells in liver and spleen homogenates,[1]; CBA/Ca mice,decreased significantly
same,degradation process in plasma relative to serum,"in vitro; 25% (v/v) murine plasma in PBS, 37°C, LC-MS",slower in plasma than in serum
same,state of the peptide after 8 h,"in vitro; 25% (v/v) murine serum in PBS, 37°C, 8 h incubation, LC-MS",almost completely degraded
same,"metabolised at 1 h, 200 μg/mL","in vitro; mouse, 25% (v/v) murine serum in PBS",10%
same,peptide degradation in PBS alone,[2],no peptide degradation was observed
same,degradation in plasma relative to serum (immunodetection),"[3]; 25% (v/v) murine plasma in PBS, up to 24 h",slower
same,band corresponding to intact peptide (immunodetection),"[3]; 25% (v/v) murine serum in PBS, 24 h incubation, 120 μg in 200 μL",disappeared
same,reduction of the number of CFU,[4]; in the absence of serum/plasma,2.5 log
same,reduction of the number of CFU,"[4]; with 66% murine serum or plasma, approx. 1 × 10^6 cells/ml, three independent determinations in triplicate",0.5-1 log
same,bactericidal activity upon addition of BSA,"[4]; 40 mg/mL BSA, data not shown",did not change
same,peptide concentration giving a CFU reduction comparable to 10 μM in serum/plasma,"[4]; without the presence of plasma/serum, 1 h",1 µM
same,dose at which mice died,Balb/c and CBA/Ca mice; highest dose,150 mg/kg
same,dose with no apparent toxic effect,Balb/c and CBA/Ca mice; monitored over 14 days,up to 75 mg/kg
same,mean survival time,"[5]; 30 mg/kg i.p. after i.p. challenge with 1 × 10^2 CFU/mouse, 60 days monitoring, control 10 days, p = 0.01",24.5 days
same,infected mice completely cured (survival),"[5]; 30 mg/kg i.p., 60 days, untreated 0%, p = 0.04",36%
O=C(O)c1cn(C2CC2)c2cc(N3CCNCC3)c(F)cc2c1=O [ciprofloxacin],prevention of fatal S. typhimurium disease,[6],failed to prevent
"Bac7(1-35)-Alexa680: derivative of Bac7(1-35) fluorescently labelled with the dye Alexa680 via an added C-terminal cysteine (RRIRPRPPRLPRPRPRPLPFPRPGPRPIPRPLPFP-{C(Alexa Fluor 680 C2-maleimide)}; UniProt P19661 131-165, looked up, fragment)",antimicrobial activity relative to the unlabelled peptide,[7],comparable
"Drosocin: insect proline-rich AMP (GKPRPYSPRPTSHPRPIRV; ends and bridges not checked; UniProt P36193 22-40, looked up)",dose at which completely devoid of toxicity,healthy animals / mice,100 mg/kg
